The supplement of paper PMC10307832

What was measured:
Assay in all cases: relative viability (nuclei count vs DMSO), 5 days (fraction); higher = more cells survive
Etoposide + AZD7762 = compound: COc1cc([C@@H]2c3cc4c(cc3[C@@H](O[C@@H]3O[C@@H]5CO[C@@H](C)O[C@H]5[C@H](O)[C@H]3O)[C@H]3COC(=O)[C@H]23)OCO4)cc(OC)c1O [Etoposide] + NC(=O)Nc1cc(-c2cccc(F)c2)sc1C(=O)N[C@H]1CCCNC1 [AZD7762] (partner 0.2 µM)
In short: (§1)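 Lung cancer cell lines, seeded in 1536-well plates, were treated the following day by pin tool with a single drug or with five library-drug doses (not always all listed) in √10 steps on top of a fixed anchor-drug dose. Cells were fixed and nuclei stained in one step after 5 days, and nuclei were counted. Relative viability is the nuclei count for treated wells divided by that for vehicle wells, reported as medians of duplicate plates.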

Bleomycin + Crizotinib = compound: CC1=C(N=C(N=C1N)[C@H](CC(=O)N)NC[C@@H](C(=O)N)N)C(=O)N[C@@H]([C@H](C2=CN=CN2)OC3C(C(C(C(O3)CO)O)O)OC4C(C(C(C(O4)CO)O)OC(=O)N)O)C(=O)N[C@H](C)[C@H]([C@H](C)C(=O)N[C@@H]([C@@H](C)O)C(=O)NCCC5=NC(=CS5)C6=NC(=CS6)C(=O)NCCC[S+](C)C)O [Bleomycin] + C[C@@H](Oc1cc(-c2cnn(C3CCNCC3)c2)cnc1N)c1c(Cl)ccc(F)c1Cl [Crizotinib] (partner 1 µM); conditions: main component drawn
In short: as §1

Etoposide + Bortezomib = compound: COc1cc([C@@H]2c3cc4c(cc3[C@@H](O[C@@H]3O[C@@H]5CO[C@@H](C)O[C@H]5[C@H](O)[C@H]3O)[C@H]3COC(=O)[C@H]23)OCO4)cc(OC)c1O [Etoposide] + CC(C)C[C@H](NC(=O)[C@H](Cc1ccccc1)NC(=O)c1cnccn1)B(O)O [Bortezomib] (partner 0.002 µM)
In short: as §1

Bleomycin + Bortezomib = compound: CC1=C(N=C(N=C1N)[C@H](CC(=O)N)NC[C@@H](C(=O)N)N)C(=O)N[C@@H]([C@H](C2=CN=CN2)OC3C(C(C(C(O3)CO)O)O)OC4C(C(C(C(O4)CO)O)OC(=O)N)O)C(=O)N[C@H](C)[C@H]([C@H](C)C(=O)N[C@@H]([C@@H](C)O)C(=O)NCCC5=NC(=CS5)C6=NC(=CS6)C(=O)NCCC[S+](C)C)O [Bleomycin] + CC(C)C[C@H](NC(=O)[C@H](Cc1ccccc1)NC(=O)c1cnccn1)B(O)O [Bortezomib] (partner 0.002 µM); conditions: main component drawn
In short: as §1

Cell Line	relative viability (Etoposide + AZD7762; first compound 0.01 µM)	relative viability (Etoposide + AZD7762; first compound 0.03162 µM)	relative viability (Etoposide + AZD7762; first compound 0.1 µM)	relative viability (Etoposide + AZD7762; first compound 0.3162 µM)	relative viability (Etoposide + AZD7762; first compound 1 µM)	relative viability (Bleomycin + Crizotinib; first compound 0.01 µM)	relative viability (Bleomycin + Crizotinib; first compound 0.03162 µM)	relative viability (Bleomycin + Crizotinib; first compound 0.1 µM)	relative viability (Bleomycin + Crizotinib; first compound 0.3162 µM)	relative viability (Bleomycin + Crizotinib; first compound 1 µM)	relative viability (Etoposide + Bortezomib; first compound 0.01 µM)	relative viability (Etoposide + Bortezomib; first compound 0.03162 µM)	relative viability (Etoposide + Bortezomib; first compound 0.1 µM)	relative viability (Etoposide + Bortezomib; first compound 0.3162 µM)	relative viability (Etoposide + Bortezomib; first compound 1 µM)	relative viability (Bleomycin + Bortezomib; first compound 0.01 µM)	relative viability (Bleomycin + Bortezomib; first compound 0.03162 µM)	relative viability (Bleomycin + Bortezomib; first compound 0.1 µM)	relative viability (Bleomycin + Bortezomib; first compound 0.3162 µM)	relative viability (Bleomycin + Bortezomib; first compound 1 µM)
NCI-H2342	0.573	0.441	0.337	0.433	0.4															
SK-MES-1						0.83	0.86	0.753	0.309	0.213										
NCI-H2023						0.473	0.447	0.346	0.131	0.104	0.975	1.15	0.456	0.46	0.123	0.61	0.772	0.548	0.205	0.11
SK-LU-1						0.816	1.11	0.797	0.446	0.428	1.44	1.11	0.765	0.515	0.272	0.939	1.04	0.915	0.293	0.274
Calu-6						0.514	0.394	0.379	0.141	0.181	1.06	0.973	1.03	0.693	0.405	0.638	0.673	0.334	0.226	0.191
SW 1573						0.713	0.604	0.711	0.402	0.227	1	0.977	0.608	0.449	0.186	0.7	0.812	0.719	0.305	0.26
LK-2	0.395	0.659	0.255	0.319	0.2	0.237	0.216	0.213	0.229	0.273										
NCI-H2228						0.393	0.362	0.488	0.318	0.327	1	1.17	0.731	0.717	0.22	1.14	1.02	0.721	0.558	0.293
NCI-H1944	0.577	0.639	0.276	0.377	0.235	0.544	0.565	0.432	0.237	0.186										
NCI-H2009						0.976	1.07	0.991	0.603	0.459	0.975	1.1	0.933	0.628	0.241	0.852	0.98	1.01	0.358	0.441
COR-L23						0.444	0.317	0.226	0.0998	0.099	0.962	0.937	0.804	0.693	0.342	0.669	0.774	0.355	0.136	0.102
NCI-H1299						0.896	0.943	0.715	0.402	0.331	1.03	0.999	1.11	0.957	0.821	0.963	0.994	0.95	0.435	0.412
NCI-H661						0.82	0.943	0.745	0.508	0.425	0.735	0.828	0.531	0.543	0.276	0.838	0.603	0.484	0.228	0.251
NCI-H1650						0.397	0.311	0.258	0.16	0.172	0.201	0.204	0.208	0.181	0.185	0.2	0.216	0.194	0.167	0.172
NCI-H1793		0.548	0.282	0.474	0.196															
COR-L 105						0.587	0.875	0.52	0.368	0.364	0.613	1.23	0.502	0.7	0.495	0.711	0.594	0.549	0.337	0.292
NCI-H520						0.531	0.898	0.735	0.505	0.4	0.484	0.634	0.379	0.576	0.561	0.596	0.33	0.708	0.142	0.293
NCI-H1648		0.762	0.991	0.722	0.451															
NCI-H1563						0.714	0.694	0.723	0.594	0.518	0.802	0.866	0.781	0.618	0.605	0.755	0.767	0.689	0.536	0.531
A549						0.601	0.562	0.339	0.0813	0.0619										
NCI-H522	0.891	0.97	0.69	0.761	0.824															
SW 900	0.561	0.7	0.379	0.539	0.293															
NCI-H1395	0.423	0.435	0.4	0.375	0.362															
IA-LM						0.502	0.64	0.476	0.523	0.29	0.821	0.929	0.466	0.837	0.522	0.493	0.746	0.676	0.339	0.269
EBC-1						0.204	0.193	0.2	0.198	0.151	0.528	0.503	0.55	0.581	0.379	0.474	0.422	0.469	0.307	0.233
